pIC50: −log10 of the molar value. Where two headings read alike, the source gives them in different places.
Tests used:
plasma kallikrein (PKa) = molecular target: T1, plasma kallikrein (PKa) (Homo sapiens, UniProt P03952); assay: Inhibitory activity against plasma kallikrein in vitro (fluorescence intensity enzyme assay, Pro-Phe-Arg-AMC substrate); assay type: biochemical; conditions: Pro-Phe-Arg-AMC substrate
T1 construct: purchased R & D 2497-SE
In short: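 Fluorescence intensity enzyme assay with 10 nM enzyme and 60 µM Pro-Phe-Arg-AMC (final concentrations). Compounds in DMSO, tested in duplicate over a dose series. IC50 from nonlinear regression curve fitting.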

KLK1 = KLK1 (Homo sapiens, UniProt P06870); assay: Inhibitory activity against KLK1 in vitro (biochemical assay)
Excerpt: Test Example 1. Test of the inhibitory activities of the compounds of the present invention against plasma kallikrein (PKa), KLK1 and FXIa in vitro. […]

FXIa = FXIa (Homo sapiens, UniProt P03951); assay: Inhibitory activity against FXIa in vitro (biochemical assay)
Experimental: Test Example 1. Test of the inhibitory activities of the compounds of the present invention against plasma kallikrein (PKa), KLK1 and FXIa in vitro.
PKK (R & D, Cat # 2497-SE) and Pro-Phe-Arg-AMC (Nanjing Peptide, Cat # NJP23946) solutions were prepared in reaction buffer (50 mM Tris-HCl, pH 7.5, 250 mM NaCl). The final concentrations of enzyme protein and Pro-Phe-Arg-AMC in the reaction mixture were 10 nM and 60 µM, respectively. The starting concentration of the positive reference substance Avoralstat was 100 nM, 3-fold dilution, 10 + 0 dose. 0.05 µL of compound in 100% DMSO was delivered to a 384-well plate by an acoustic liquid delivery technique (Echo665; nanoliter range). Compound duplex test. 5 µL of 2 × enzyme solution was transferred to a 384 reaction plate and centrifuged at 1000 rpm for 1 minute, incubated at 25°C for 15 minutes; 5 µL of 2 × Pro-Phe-Arg-AMC solution was transferred to a 384 reaction plate, centrifuged at 1000 rpm for 1 minute, incubated at 25°C for 3 hours. […] IC50 values and nonlinear regression curve fitting were obtained using GraphPad Prism software.

[1] = plasma kallikrein enzyme assay, read-out: PKa IC50
[2] = PKa IC50, plasma kallikrein enzyme assay

T1 sequence (P03952 391-638 limits assumed): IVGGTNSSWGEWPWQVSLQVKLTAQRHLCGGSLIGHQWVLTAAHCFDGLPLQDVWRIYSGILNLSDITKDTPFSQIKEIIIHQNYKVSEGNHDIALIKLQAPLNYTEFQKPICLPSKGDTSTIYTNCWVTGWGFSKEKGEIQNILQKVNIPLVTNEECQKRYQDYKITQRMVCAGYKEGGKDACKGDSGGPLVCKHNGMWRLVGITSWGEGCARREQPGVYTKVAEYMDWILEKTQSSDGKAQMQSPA
T1 sequence (P03952 20-390 partner limits assumed): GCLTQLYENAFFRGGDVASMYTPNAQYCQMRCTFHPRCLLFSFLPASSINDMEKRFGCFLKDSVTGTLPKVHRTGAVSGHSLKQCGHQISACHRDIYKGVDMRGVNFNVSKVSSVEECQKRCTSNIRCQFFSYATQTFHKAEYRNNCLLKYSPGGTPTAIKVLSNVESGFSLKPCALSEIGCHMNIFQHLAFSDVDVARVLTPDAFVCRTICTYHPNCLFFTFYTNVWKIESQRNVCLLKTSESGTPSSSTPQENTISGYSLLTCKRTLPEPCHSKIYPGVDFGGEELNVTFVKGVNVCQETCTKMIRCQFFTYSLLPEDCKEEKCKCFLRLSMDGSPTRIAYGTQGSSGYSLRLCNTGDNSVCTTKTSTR
Chain of FXIa (P03951 388-625 limits assumed): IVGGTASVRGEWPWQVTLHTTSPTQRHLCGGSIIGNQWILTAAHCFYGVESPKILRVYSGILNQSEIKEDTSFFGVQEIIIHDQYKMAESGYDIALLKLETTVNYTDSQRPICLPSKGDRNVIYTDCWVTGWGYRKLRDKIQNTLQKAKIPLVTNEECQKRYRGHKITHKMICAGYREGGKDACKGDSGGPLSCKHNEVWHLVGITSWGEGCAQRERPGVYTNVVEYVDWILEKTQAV
Chain of FXIa (P03951 19-387 partner limits assumed): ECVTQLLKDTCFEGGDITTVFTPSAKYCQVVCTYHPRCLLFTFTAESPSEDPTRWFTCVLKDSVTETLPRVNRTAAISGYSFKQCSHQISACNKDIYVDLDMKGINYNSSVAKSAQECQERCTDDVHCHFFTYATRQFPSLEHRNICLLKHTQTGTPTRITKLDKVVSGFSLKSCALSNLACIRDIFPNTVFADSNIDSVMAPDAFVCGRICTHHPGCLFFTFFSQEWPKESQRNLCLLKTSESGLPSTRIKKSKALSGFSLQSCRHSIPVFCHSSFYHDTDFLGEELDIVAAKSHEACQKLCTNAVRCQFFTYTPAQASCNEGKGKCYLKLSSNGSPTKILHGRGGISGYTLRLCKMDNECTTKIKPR
Chain of KLK1 (P06870 25-262, species assumed): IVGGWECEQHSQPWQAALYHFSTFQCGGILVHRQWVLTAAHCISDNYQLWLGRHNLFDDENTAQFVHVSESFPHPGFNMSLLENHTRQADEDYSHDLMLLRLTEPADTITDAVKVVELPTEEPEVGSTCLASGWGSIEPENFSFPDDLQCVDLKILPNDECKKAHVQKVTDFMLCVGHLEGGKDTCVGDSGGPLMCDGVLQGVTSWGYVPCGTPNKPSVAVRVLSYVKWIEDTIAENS

SMILES | pIC50 (plasma kallikrein (PKa); [1]) | IC50 (KLK1; values given in µM) [µM] | IC50 (FXIa; values given in µM) [µM] | pIC50 (plasma kallikrein (PKa); [2]) | IC50 (KLK1; values in nM) [µM] | IC50 (FXIa; values in nM) [µM]
Cc1cc(N)nc(C)c1CNC(=O)c1ncn(C(C)c2ccc(Cn3ccccc3=O)cc2)n1 (stereo not drawn) [Compound 50] | 9.05 | > 10 | > 10 | – | – | –
CN(C)c1ccnc(CNC(=O)c2cn(Cc3ccc(Cn4ccccc4=O)cc3)nc2C2COC2)c1F [Compound 335] | 8.72 | > 10 | > 10 | – | – | –
COCc1nn(Cc2c(F)c(F)c(Cn3cc(F)ccc3=O)c(F)c2F)cc1C(=O)NCc1c(C)cc(N)nc1C [Compound 49] | 8.56 | > 10 | > 10 | – | – | –
Cn1ccc2cnc(CNC(=O)c3cnn(Cc4ccc(Cn5ccccc5=O)cc4)c3)c(F)c21 [Compound 356] | 8.65 | > 10 | > 10 | – | – | –
N=C(N)c1ccc(CNC(=O)c2cnn(Cc3cc(F)c(OCC4CC4)c(F)c3)c2)cc1 [Compound 345] | 8.70 | > 10 | > 10 | – | – | –
CCOc1cc(Cn2cc(C(=O)NCc3ccc(C(=N)N)cc3)cn2)ccc1CC1CC1 [Compound 264] | 9.09 | > 10 | > 10 | – | – | –
Cc1cc2nccn2c(C)c1CNC(=O)c1nc(Cc2ccc(Cn3ccccc3=O)cc2)ns1 [Compound 137] | 9.05 | > 10 | > 10 | – | – | –
N=C(N)c1ccc(CNC(=O)c2cnn(Cc3cc(F)c(C(=O)C4CC4)c(F)c3)c2)cc1 [Compound 394] | 8.81 | > 10 | > 10 | – | – | –
Cc1cc(N)nc(C)c1CNC(=O)c1cn(Cc2ccc(CN3CCOCC3=O)cc2)nc1C(F)F [Compound 64] | 8.52 | > 10 | > 10 | – | – | –
N=C(N)c1ccc(CNC(=O)c2cnn(Cc3ccc(CC4CC4)cc3)c2)c(F)c1 [Compound 270] | 9.74 | > 10 | > 10 | – | – | –
CCn1cnc2c1CC[C@H]2NC(=O)c1cn(Cc2ccc(Cn3ccccc3=O)cc2)nc1COC [Compound 130] | 8.96 | > 10 | > 10 | – | – | –
COCc1nn(Cc2ccc(Cn3ccccc3=O)cc2)cc1C(=O)NCc1c(C)cn2cncc2c1C [Compound 147] | – | > 10 | > 10 | 8.80 | – | –
Cc1cc(N)nc(C)c1CNC(=O)c1noc(Cc2ccc(Cn3ccccc3=O)cc2)n1 [Compound 48] | 9.42 | > 10 | > 10 | – | – | –
Cc1nc(C)n(Cc2ccc(Cn3cc(C(=O)NCc4ccc(C(=N)N)cc4F)cn3)cc2)n1 [Compound 351] | 8.95 | > 10 | > 10 | – | – | –
Cc1cn2cncc2c(C)c1CNC(=O)c1cn(Cc2ccc(Cn3ccccc3=O)cc2)nc1C(F)(F)F [Compound 203] | 9.28 | > 10 | > 10 | – | – | –
COc1ccnc(CNC(=O)c2cn(Cc3ccc(Cn4ccccc4=O)cc3)nc2C2C(C)(C)C2(F)F)c1F (stereo not drawn) [Compound 263] | 9.23 | > 10 | > 10 | – | – | –
N=C(N)c1ccc(CNC(=O)c2cnn(Cc3cc(F)c(OC4CC4)c(F)c3)c2)cc1 [Compound 365] | 8.73 | > 10 | > 10 | – | – | –
Cn1ccc2cnc(CNC(=O)c3cn(Cc4ccc(Cn5ccccc5=O)cc4)nc3C(F)(F)F)c(F)c21 [Compound 378] | 8.85 | > 10 | > 10 | – | – | –
Cc1cc(N)nc(C)c1CNC(=O)c1cn(Cc2ccc(Cn3ccccc3=O)cc2)nc1C(F)F [Compound 69, N-((6-amino-2,4-dimethylpyridin-3-yl)methyl)-3-(difluoromethyl)-1-(4-(2-oxopyridin-1(2H)-yl)methylbenzyl)-1H-pyrazole-4-carboxamide] | 10.12 | > 10 | > 10 | – | – | –
Cc1cc(C)n(Cc2ccc(Cn3cc(C(=O)NCc4ccc(C(=N)N)cc4)cn3)cc2)n1 [Compound 366] | 10.15 | > 10 | > 10 | – | – | –
N=C(N)c1ccc(CNC(=O)c2cnn(Cc3ccc(Cn4ccccc4=O)cc3)c2)cc1 [Compound 12] | 8.79 | > 10 | > 10 | – | – | –
N=C(N)c1ccc(CNC(=O)c2cnn(Cc3ccc(Cn4ccccc4=O)cc3)c2)cn1 [Compound 353] | 9.10 | > 10 | > 10 | – | – | –
N=C(N)c1ccc(CNC(=O)c2cnn(Cc3cc(F)c(CC4CC4)c(F)c3)c2)cc1 [Compound 380] | 9.57 | > 10 | > 10 | – | – | –

SMILES | pIC50 (plasma kallikrein (PKa); [1]) | IC50 (KLK1; values given in µM) [µM] | IC50 (FXIa; values given in µM) [µM] | pIC50 (plasma kallikrein (PKa); [2]) | IC50 (KLK1; values in nM) [µM] | IC50 (FXIa; values in nM) [µM]
N#Cc1cc(N2CC3C(C2)C3(F)F)ccc1Cn1cnc(C(=O)NCc2ccc3c(N)nccc3c2)n1 (stereo not drawn) [Compound 43] | 9.04 | > 10 | > 10 | – | – | –
Cn1cnc2c1CC[C@H]2NC(=O)c1cn(Cc2cn3cc(C4CC4)ccc3n2)nn1 [Compound 35] | 8.78 | > 10 | > 10 | – | – | –
Cc1cc(N)nc(C)c1CNC(=O)c1ncn(Cc2cc(Cn3ccccc3=O)cs2)n1 [Compound 73] | 8.51 | > 10 | > 10 | – | – | –
COCc1nn(Cc2ccc(Cn3ccccc3=O)cc2)cc1C(=O)N[C@@H]1CCc2c1ncn2C [Compound 70] | 8.73 | > 10 | > 10 | – | – | –
N=C(N)c1ccc(CNC(=O)c2cnn(Cc3cc(Cl)c(CC4CC4)c(Cl)c3)c2)cc1 [Compound 372] | 9.07 | > 10 | > 10 | – | – | –
Cc1cc(N)nc(C)c1CNC(=O)c1ccn(Cc2ccc(Cn3cccc(C)c3=O)cc2)n1 [Compound 75] | 9.66 | > 10 | > 10 | – | – | –
COc1ccc(F)c(CNC(=O)c2cn(Cc3ccc(Cn4ccccc4=O)cc3)nc2COCCN(C)C)c1F [Compound 222] | 8.71 | > 10 | > 10 | – | – | –
Cc1cc(N)nc(C)c1CNC(=O)c1cc(Cc2ccc(Cn3ccccc3=O)cc2)ccn1 [Compound 13] | – | > 10 | > 10 | 9.29 | – | –
COCc1nn(Cc2ccc(Cn3ccccc3=O)cc2)cc1C(=O)NCc1ncc2ccn(C)c2c1F [Compound 363] | 8.67 | > 10 | > 10 | – | – | –
Cc1cc(N)nc(C)c1CNC(=O)c1nnc(Cc2ccc(Cn3ccccc3=O)cc2)[nH]1 [Compound 44] | 9.41 | > 10 | > 10 | – | – | –
Cc1cc2nccn2c(C)c1CNC(=O)c1cnn(Cc2ccc(Cn3ccccc3=O)cc2)c1 [Compound 94] | 9.28 | > 10 | > 10 | – | – | –
N=C(N)c1ccc(CNC(=O)c2cnn(Cc3ccc(N4CC5C(C4)C5(F)F)c(C(F)(F)F)c3)c2)cc1 (stereo not drawn) [Compound 382] | 9.82 | > 10 | > 10 | – | – | –
O=C(NCc1ncc2cc[nH]c2c1F)c1cn(Cc2ccc(Cn3ccccc3=O)cc2)nc1C(F)(F)F [Compound 357] | 8.72 | > 10 | > 10 | – | – | –
Cc1cc(N)nc(C)c1CNC(=O)c1ncn(Cc2cn3cc(C4CC4)ccc3n2)n1 [Compound 47] | 9.74 | > 10 | > 10 | – | – | –
N=C(N)c1ccc(CNC(=O)c2cnn(Cc3ccc(N4CCOCC4)c(C(F)(F)F)c3)c2)cc1 [Compound 388] | 9.74 | > 10 | > 10 | – | – | –
Cc1cc(C(=N)N)cc(C)c1CNC(=O)c1cnn(Cc2ccc(Cn3ccccc3=O)cc2)c1 [Compound 314] | 9.49 | > 10 | > 10 | – | – | –
Cc1cc(N)nc(C)c1CNC(=O)c1ccc(Cc2ccc3ncc(Cl)cc3c2)s1 [Compound 3, N-((6-amino-2,4-dimethylpyridin-3-yl)methyl)-5-((3-chloroquinolin-6-yl)methyl)thiophene-2-carboxamide] | 8.03 | – | – | – | < 0.5 | < 0.5
N#Cc1cc(N2CC3C(C2)C3(F)F)ccc1Cn1cnc(C(=O)NC2CCc3cc(N)ncc32)n1 (single isomer, unassigned) [Compound 54] | 9.34 | > 10 | > 10 | – | – | –
COCc1nn(Cc2ccc(Cn3ccccc3=O)cc2)cc1C(=O)NCc1cn2c(n1)CNCC2 [Compound 118] | 9.04 | > 10 | > 10 | – | – | –
Cc1nc(N)ccc1CNC(=O)c1ncn(Cc2ccc(Cn3ccccc3=O)cc2)n1 [Compound 27] | 8.83 | > 10 | > 10 | – | – | –
Cc1cc(C)n(Cc2ccc(Cn3cc(C(=O)NCc4ccc(C(=N)N)cc4F)cn3)cc2)n1 [Compound 355] | 9.92 | > 10 | > 10 | – | – | –
Cc1cc(N)nc(C)c1CNC(=O)c1nsc(Cc2ccc(Cn3ccccc3=O)cc2)n1 [Compound 67] | 9.54 | > 10 | > 10 | – | – | –
COc1ccc(F)c(CNC(=O)c2cn(Cc3ccc(Cn4cc(F)ccc4=O)cc3)nc2C2CC2(F)F)c1F (stereo not drawn) [Compound 218] | 8.67 | > 10 | > 10 | – | – | –

Reference: EP4737450A1 (Longwood Pharmaceuticals (Hangzhou) Co., Ltd, priority 2023, dated 2025)
